Experimental data: patent US20220313753A1, “BIFIDOBACTERIUM BIFIDUM BACTERIAL STRAIN, THE COMPOSITIONS THEREOF AND RELATED USES” (priority 2019, published 2022)
Read-outs that look alike come from different tables or passages of the source.

Key:
bifidobacteria = settings: limit values provided for bifidobacteria (EFSA, 2012); cited from earlier work
[1] = tested on: B. bifidum MIMBb23sg DSM 32708; assay: Antibiotic MIC by microdilution analysis (ISO, 2010); type: cell-based, Bifidobacterium bifidum; settings: for MIC: Bifidobacterium bifidum
[2] = DSM32708, microdilution analysis, ISO 2010, read-out: MIC of MIMBb23sg

| Compound | EFSA limit values (bifidobacteria) [µg/mL] | MIC [1, 2] [µg/mL] | MIC ([1]; DSM32708, read-out: MIC of MIMBb23sg) [µg/mL] | MIC of MIMBb23sg ([1]; microdilution analysis, ISO 2010) [µg/mL] |
| --- | --- | --- | --- | --- |
| CC1(C)S[C@@H]2[C@H](NC(=O)[C@H](N)c3ccccc3)C(=O)N2[C@H]1C(=O)O [ampicillin] | 2 | 0.25 | – | – |
| O=C(N[C@H](CO)[C@H](O)c1ccc([N+](=O)[O-])cc1)C(Cl)Cl [chloramphenicol] | 4 | 2 | – | – |
| CCC[C@@H]1C[C@@H](C(=O)N[C@@H]([C@H]2O[C@H](SC)[C@H](O)[C@@H](O)[C@H]2O)[C@H](C)Cl)N(C)C1 [clindamycin] | – | 0.25 | – | – |
| CC[C@H]1OC(=O)[C@H](C)[C@@H](O[C@H]2C[C@@](C)(OC)[C@@H](O)[C@H](C)O2)[C@H](C)[C@@H](O[C@@H]2O[C@H](C)C[C@H](N(C)C)[C@H]2O)[C@](C)(O)C[C@@H](C)C(=O)[C@H](C)[C@@H](O)[C@]1(C)O [erythromycin] | 1 | 0.25 | – | – |
| NC[C@H]1O[C@H](O[C@H]2[C@H](O)[C@@H](O[C@H]3O[C@H](CO)[C@@H](O)[C@H](N)[C@H]3O)[C@H](N)C[C@@H]2N)[C@H](O)[C@@H](O)[C@@H]1O [kanamycin] | – | 128 | – | – |
| [H]/N=C(/N)N[C@H]1[C@H](O)[C@@H](O)[C@H](O[C@@H]2O[C@@H](C)[C@](O)(C=O)[C@H]2O[C@@H]2O[C@@H](CO)[C@H](O)[C@@H](O)[C@@H]2NC)[C@@H](N/C(N)=N\[H])[C@@H]1O [streptomycin] | 128 | 128 | – | – |
| CN(C)[C@@H]1C(O)=C(C(N)=O)C(=O)[C@@]2(O)C(O)=C3C(=O)c4c(O)cccc4[C@@](C)(O)[C@H]3C[C@@H]12 [tetracycline] | – | 1 | – | – |
| CN[C@H](CC(C)C)C(=O)N[C@H]1C(=O)N[C@@H](CC(N)=O)C(=O)N[C@H]2C(=O)N[C@H]3C(=O)N[C@H](C(=O)N[C@H](C(=O)O)c4cc(O)cc(O)c4-c4cc3ccc4O)[C@H](O)c3ccc(c(Cl)c3)Oc3cc2cc(c3O[C@@H]2O[C@H](CO)[C@@H](O)[C@H](O)[C@H]2O[C@H]2C[C@](C)(N)[C@H](O)[C@H](C)O2)Oc2ccc(cc2Cl)[C@H]1O [vancomycin] | 2 | – | 0.5 | – |
| gentamicin | 64 | – | – | 32 |
